# Measured values from patent publication US20070254905A1, “Pharmaceutical Formulation for Increasing Solubility of 10-Hydroxycamptothecin Compounds in Non-Aqueous Polar Solvents” (priority 2004, published 2007).
# Where two headings read alike, the source gives them in different places.
# How the values were obtained:
# [1] = Lyophilized SN-38 formulation reconstituted with water for injection, HPLC and pH; assay type: physicochemical
# Procedure: Alternatively, a 10-hydroxycamptothecin compound and an amine compound are solubilized in non-aqueous polar solvent, and polymer surfactant is added thereto to prepare a solution. Next, a caking agent for lyophilization is added thereto to prepare a lyophilized formulation. As a specific example, 250 mg of copolymer (mPEG-PLA) of polyethyleneglycol (molecular weight: 2,000 daltons) and polylactic acid (molecular weight: 1,800 daltons) maybe added to a solution in which SN-38 and tromethamine are solubilized in anhydrous ethanol as above, to prepare a pure solution, and then 4 Ml of aqueous mannitol solution (100 mg/Ml) as a caking agent for lyophilization is added thereto, which is filtered with a filter having a pore size of 200 nm, and lyophilized. This lyophilized formulation is reconstituted with 4 Ml of water for injection, and then analyzed by HPLC to confirm that the concentration of SN-38 was 205 μg/Ml, 92% or more of SN-38 existed in the form of a lactone, and the pH of the aqueous solution was 8.4.
# 12 mg of tromethamine was dissolved in 1 ml of anhydrous ethanol, and 1 mg of SN-38 was added thereto and heated to 60[…] to prepare a pure solution of orange color. Subsequently, the block copolymer of methoxypolyethyleneglycol and polylactic acid, and 200 mg of mPEG-PLA (mPEG molecular weight: 2,000 daltons, PLA molecular weight: 1,800 daltons) were added thereto to prepare a pure solution. Then, 5 ml of aqueous mannitol solution (50 mg/ml) was added thereto, mixed, filtered with a filter having a pore size of 200 nm, and lyophilized to prepare a lyophilized formulation.
# Injectable water of 4 Ml was added to the lyophilized vial to reconstitute the lyophilized formulation.
# acetylcholine = details: compared with CPT-11; cited from earlier work
# physchem = details: organic solvent or mixture, thermodynamic from solid
# [2] = SN-38 content, lactone/carboxy anion ratio and pH after dilution of surfactant composition with aqueous solution; assay type: physicochemical; details: tromethamine/ethanol/cremophore EL solution, refrigerator 1 week, diluted with 0.9% saline to 5 Ml
# [3] = assay type: physicochemical
# [4] = cited from earlier work
# topoisomerase □ = molecular target: T1, topoisomerase □ (Homo sapiens, UniProt P11387); details: relative to CPT-11; cited from earlier work
# T1 sequence (P11387 1-765): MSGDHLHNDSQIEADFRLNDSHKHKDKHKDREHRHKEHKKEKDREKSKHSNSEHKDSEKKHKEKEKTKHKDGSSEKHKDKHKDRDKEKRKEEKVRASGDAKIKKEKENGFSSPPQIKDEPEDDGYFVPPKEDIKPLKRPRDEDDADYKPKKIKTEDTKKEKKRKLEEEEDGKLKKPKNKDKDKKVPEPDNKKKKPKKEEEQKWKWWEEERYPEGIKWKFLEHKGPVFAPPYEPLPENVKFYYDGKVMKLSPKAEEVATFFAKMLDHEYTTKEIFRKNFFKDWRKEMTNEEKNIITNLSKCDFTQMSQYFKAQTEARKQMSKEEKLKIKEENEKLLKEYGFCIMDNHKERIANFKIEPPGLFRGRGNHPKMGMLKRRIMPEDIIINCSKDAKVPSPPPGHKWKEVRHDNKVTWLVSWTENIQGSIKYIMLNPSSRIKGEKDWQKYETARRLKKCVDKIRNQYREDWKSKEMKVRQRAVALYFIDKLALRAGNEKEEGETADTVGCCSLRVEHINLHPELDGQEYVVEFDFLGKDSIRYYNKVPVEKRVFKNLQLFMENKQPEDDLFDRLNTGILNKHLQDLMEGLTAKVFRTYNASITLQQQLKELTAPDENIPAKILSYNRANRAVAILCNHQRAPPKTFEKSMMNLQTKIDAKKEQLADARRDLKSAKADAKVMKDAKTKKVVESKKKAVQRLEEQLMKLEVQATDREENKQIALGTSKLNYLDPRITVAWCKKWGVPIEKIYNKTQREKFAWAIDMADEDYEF
# [5] = lyophilized with 250 mg mPEG-PLA, tromethamine, mannitol, reconstituted with 4 Ml water for injection
# [6] = anhydrous ethanol, 10 equivalents of triethanolamine
structure (smiles),measurement,setting,value
"CCc1c2c(nc3ccc(O)cc13)-c1cc3c(c(=O)n1C2)COC(=O)C3(O)CC (stereo not drawn) [SN-38, 7-ethyl-10-hydroxycamptothecin]",pH of the aqueous solution,"[1]; Example 8: 12 mg tromethamine, 200 mg mPEG-PLA, mannitol, lyophilized, reconstituted with 4 Ml injectable water",8.4
same,Lactone form of SN-38,[1]; Example 8 lyophilized formulation reconstituted with 4 Ml injectable water,97%
same,Drug content,"[1]; Example 8 lyophilized formulation reconstituted with 4 Ml injectable water, HPLC",242 µg/mL
same,Concentration of SN-38,[1]; [5],205 µg/mL
same,SN-38 in the form of a lactone,[1]; [5],≥ 92%
same,pH of the aqueous solution,[1]; [5],8.4
same,Effect for inhibiting acetylcholine which causes diarrhea,acetylcholine,much lower than that of CPT-11
same,solubility at 12 h,"physchem; Solubility of SN-38 in ethanol, ethanol, no amine",8 µg/mL
same,solubility at 12 h,"physchem; Solubility of SN-38 in ethanol, in the presence of 5 or more equivalents of diethanolamine",≥ 1000 µg/mL
same,solubility at 12 h,"physchem; Solubility, SN-38 1 mg in 1 ml anhydrous ethanol, amine compound 10 equivalents, room temperature 12 hours",≥ 1000 µg/mL
same,solubility at 12 h,"physchem; Solubility, SN-38 1 mg in 1 ml organic solvent, tromethamine 10 equivalents, room temperature 12 hours",≥ 1000 µg/mL
same,Concentration of SN-38,[2],220 µg/mL
same,SN-38 in the form of the lactone,[2],≥ 95%
same,pH of the solution diluted with saline,[2],8.7
same,Solubility of SN-38,anhydrous ethanol without adding an amine compound,a few
same,Solubility of SN-38,[6],about 1 mg/Ml
same,SN-38 in the form of a lactone,"[3]; 1 mg SN-38, 10 mg tromethamine, 1 Ml anhydrous ethanol, 500 mg cremophore EL, diluted with acetonitrile",100%
same,Lacton content,"[3]; SN-38 1 mg in 1 ml anhydrous ethanol, amine compound 10 equivalents",100%
same,Lacton content,"[3]; SN-38 1 mg in 1 ml organic solvent, tromethamine 10 equivalents",100%
same,Form of SN-38 by HPLC analysis,[3]; [6],no carboxy anion form was observed
same,Solubility in water of the active lactone form,[4]; active lactone form,not more than 10 μg/ml
same,Solubility of SN-38 in water,[4],not more than 10 μg/ml
same,Solubility in water of the carboxy anion form,[4]; inactive carboxy anion form,≥ 4000 µg/mL
same,"Activity for inhibiting topoisomerase □, higher than that of CPT-11",topoisomerase □,"about 1,000 times"
